Structures are written as SMILES.

This series in a line: gradient 5% acetonitrile 3 min, to 50% in 2 min, to 85% in 15 min, held 3 min, 100 µL/min. Conditions: column: Zorbax Extend-C18 2.1 x 50 mm; eluents: water / acetonitrile, 0.1% formic acid. The method in brief:
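Retention times come from adduct peaks that were picked computationally and then checked by hand. The standards, pure and pooled in mixtures of ~100 molecules, were run on a Zorbax Extend-C18 column (2.1 × 50 mm, 1.8 μm) at 100 μL/min with water and acetonitrile, each with 0.1% formic acid. Detection was by quadrupole time-of-flight mass spectrometry in positive and negative ionization mode, with a dead volume of 40 μL and a dwell volume of 900 μL.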
Regarding `O=C(c1ccccc1)c1ccccc1C(=O)c1ccccc1`, the RP-LC retention time worked out at 1090 s. `CCOC(=O)Cc1ccc(NC(=O)N2CCc3nc[nH]c3C2)cc1`: the RP-LC retention time worked out at 588 s. Then `O=C(CN(CC1CCCO1)C(=O)c1cccc(Br)c1)N1CCNCC1` (stereo not given), with 602 s; and `Cc1cc2c(N3CCCC(C(=O)NCc4ccc(Br)cc4)C3)nccc2s1` (stereo not given), with 702 s. The compound `CCN(CCNC(=O)c1ccc2[nH]c3c(c2c1)CN(C(C)=O)CC3)c1ccccc1` gave an RP-LC retention time of 1160 s. `Cc1ccc(Nc2nc3ccncc3n(C(C)C)c2=O)cc1C` returned an RP-LC retention time of 716 s. As to `O=C(NCc1ccco1)Nc1cccn2c(C3CCC3)nnc12`, the RP-LC retention time turned out to be 694 s. Compound `CCc1cc(C2CCCN2C(=O)Nc2ccccc2Cl)on1` (stereo not given) had an RP-LC retention time of 910 s. To `O=C(Nc1cc(-c2ccccn2)no1)C1CCCC1` belongs 765 s; to `COCCNC(=O)C1CN(C(=O)c2ccco2)CC1c1ccc(OC)cc1OC` (stereo not given), 922 s; to `Cc1nn(-c2ccc3nnc(C)n3n2)c(C)c1CCC(=O)NCCc1c[nH]c2ccccc12`, 726 s. `CC(C)(C)c1csc(-c2csc(S(=O)(=O)NCc3ccc4c(c3)OCO4)c2)n1` had an RP-LC retention time of 1170 s. `O=C(Nc1nc2ccccc2s1)C1CCCN(c2ncnc3c2nc2n3CCCCC2)C1` (stereo not given) displayed an RP-LC retention time of 909 s. `O=C(c1cc(-c2ccncc2)n[nH]1)N1CCCC(C(=O)N2CCc3ccccc3C2)C1` (stereo not given) came in with an RP-LC retention time of 608 s. To `CCC(=O)N1CCc2cc(N3CC(C(=O)NC4CC4)CC3=O)ccc21` (stereo not given) belongs 620 s; to `CC(=O)CC(c1ccccc1)C1C(=O)Oc2ccccc2C1=O` (stereo not given), 1000 s; to `CCN(C(=O)c1ccc(OC)c(OC)c1)c1nc(-c2ccc(C)cc2)cs1`, 1200 s. In the case of `CCc1nc2cc(-c3noc(Cc4ccc(Cl)cc4)n3)ccc2o1`, the RP-LC retention time was 1140 s. `COc1ccccc1-c1nnc(C2CCN(C(=O)c3ccccc3)CC2)o1`: the RP-LC retention time stood at 741 s. For `O=C(Nc1ccc(F)cc1F)N1CCN(Cc2nc3cc(Cl)ccc3o2)CC1`, the RP-LC retention time was determined as 763 s. With `COc1cc(C)c(C)cc1S(=O)(=O)Nc1cccc(-c2ccc(N3CCCC3)nn2)c1`, the RP-LC retention time was 607 s. Consider `Cc1nc2ccn(Cc3ccco3)c(=O)c2cc1C(=O)N1CCN(c2ccccn2)CC1`, for which the RP-LC retention time was 602 s. Regarding `CCn1c(=O)c(NCc2ccccc2Cl)nc2ccncc21`, the RP-LC retention time was determined as 659 s. Take `COC(=O)C1=CN(C2CC2)c2cc(N3CCCC(C)C3)c(F)cc2S1(=O)=O` (stereo not given): the RP-LC retention time was determined as 1010 s. With `O=C(c1ccc[nH]1)N1CCC2(CC1)N=C(c1ccc(Cl)cc1)NO2`, the RP-LC retention time is 776 s. Then `O=C(Nc1nc2c(s1)CN(Cc1ccccc1)CC2)c1cccc(N2C(=O)CCC2=O)c1`, with 548 s; and `CCCn1ccc2sc(C)c(C(=O)N3CCN(c4ccccn4)CC3)c2c1=O`, with 593 s. In turn, `O=C(Nc1ccc2c(c1)OCCO2)c1cccc2c1CCN2C(=O)Nc1ccc(F)cc1` displayed an RP-LC retention time of 909 s. On to `O=C(NCC1CN(CC2CC2)CC12CCCCC2)Nc1ccc(F)cc1` (stereo not given), for which the RP-LC retention time amounted to 687 s. Take `O=C(NCc1noc(C2CCCC2)n1)C1CCCCC1`: the RP-LC retention time came to 811 s. `Cc1ccc2c(=O)c(C(=O)N3CCCC3)cn(CC(=O)Nc3cc(F)ccc3F)c2n1` displayed an RP-LC retention time of 703 s. As to `Cc1ccc(C(=O)N2CCN(c3nnc4cccc(C)n34)CC2)cc1`, the RP-LC retention time worked out at 670 s. As for `O=C(C1=NN(Cc2ccc(F)cc2)c2cc(Cl)ccc2S1(=O)=O)N1CCOCC1`, the RP-LC retention time was determined as 899 s. To `Cc1cccc2c(C(=O)NC3CC3)c3c(nc12)CCC3` belongs 606 s. Then `COc1coc(C(=O)N2CCN(S(C)(=O)=O)CC2)cc1=O`, with 548 s. In turn, `O=C(NCc1ccccn1)c1c2c(nc3ccccc13)C(=O)N(C1CCCCC1)C2` had an RP-LC retention time of 626 s. The compound `COc1ccc(-c2ccc(=O)n(Cc3nc(-c4ccc(Cl)c(F)c4)no3)n2)cc1` displayed an RP-LC retention time of 1080 s.

The compound `Cc1nnc2ccc(-c3noc(Cc4ccccc4Br)n3)cn12` showed an RP-LC retention time of 838 s. The compound `CCCn1c(-c2cccc(C(=O)NCc3c(C)cc(C)cc3C)c2)nc2cccnc21` registered an RP-LC retention time of 979 s. In turn, `Cc1cc(C(=O)Nc2nc(-c3ccc(C)c(C)c3)c(C)s2)no1` yielded an RP-LC retention time of 1120 s. `O=C(NCCc1cccs1)C1CCN(Cc2cc3ccccc3n2Cc2cccc(Cl)c2)CC1` had an RP-LC retention time of 833 s. On to `Cc1cc(C)c(NC(=O)Cn2c(N(C)Cc3ccccc3)nc(C)cc2=O)c(C)c1`, for which the RP-LC retention time was determined as 860 s. To `Cc1cnn(Cc2nc(-c3ccc(NC(=O)c4cccs4)cc3)oc2C)c1` belongs 879 s; to `Cc1nc(-c2csc(S(=O)(=O)N3CCN(c4cccc(Cl)c4)CC3)c2)sc1C`, 1270 s; to `CNC(=O)C1CCCN(c2nc3ncn(CC(=O)Nc4ccccc4OC)c(=O)c3s2)C1` (stereo not given), 649 s. Then `CCCn1nccc1-c1csc(S(=O)(=O)N2CCCC2)c1`, with 912 s. Compound `CCCN1C(=O)CCc2cc(NS(=O)(=O)c3ccccc3C(=O)OC)ccc21` showed an RP-LC retention time of 845 s.

On to `Cc1ccc(-c2nc3n(c2CNC(=O)c2ccco2)CCS3)cc1`, for which the RP-LC retention time is 639 s. For the compound `CCS(=O)(=O)N1CCCN(C(=O)NC(C)C)CC1`, the RP-LC retention time came to 613 s. Then `O=C(Cc1csc(Nc2cccc(C(F)(F)F)c2)n1)NCc1ccco1`, with 636 s; and `Cc1cc(=O)n(Cc2ccc(F)cc2)c(N2CCSCC2)n1`, with 917 s; and `Cc1cc(NC(=O)c2ccccc2C(F)(F)F)n(-c2nc(-c3cccs3)cs2)n1`, with 1250 s. The compound `Cn1nnc2c(N3CCN(C(=O)c4c(F)cccc4Cl)CC3)ncnc21` registered an RP-LC retention time of 687 s. Then `CC(C)c1nc(C2CN(C(=O)Nc3ccc(F)cc3)C2)n(C)n1`, with 672 s; and `Cc1cc(=O)c2cc(C(=O)c3ccccc3)ccc2[nH]1`, with 718 s; and `CCC(C)NC(=O)C1CCN(S(=O)(=O)c2cc(-c3noc(C)n3)cs2)CC1` (stereo not given), with 797 s. `O=C(Cn1nc(-c2ccccc2)c2cc(Cl)ccc21)N1CCN(c2ccccn2)CC1` came in with an RP-LC retention time of 757 s. Turning to `O=c1c2cc3c(cc2nc(SCc2nc(-c4ccccc4)no2)n1Cc1ccccc1)OCO3`, the RP-LC retention time worked out at 1240 s. On to `Cc1cc2c(cc1S(=O)(=O)N1CCCC1C(=O)N1CCc3ccccc3C1)OCC(=O)N2` (stereo not given), for which the RP-LC retention time was 748 s. Compound `CC1CCN(C(=O)C2CCCN(C(=O)c3nnc(C(=O)Nc4ccc(F)cc4)s3)C2)CC1` (stereo not given) yielded an RP-LC retention time of 661 s. `O=C(O)CCCCC(CCSCc1ccccc1)SCc1ccccc1` (stereo not given) came in with an RP-LC retention time of 670 s.

Compound `O=C(CC1CCN(C(=O)Nc2cccc(Cl)c2)CC1)N1CCN(c2ccccn2)CC1` returned an RP-LC retention time of 630 s. For `O=C(Cn1cc(C(=O)c2ccccc2)c(=O)c2cc(F)ccc21)Nc1ccc2c(c1)OCO2`, the RP-LC retention time stood at 836 s. `COc1cccc(N2CCN(c3cc(SCC(=O)NCC4CCCO4)ncn3)CC2)c1` (stereo not given) yielded an RP-LC retention time of 769 s. To `CCOc1ccc(-c2cc(=O)n(CCCC(=O)Nc3cccc(SC)c3)cn2)cc1` belongs 847 s; to `Cn1cc(S(=O)(=O)N2CCOCC2)cc1C(=O)N1CCN(c2ccc(F)cc2)CC1`, 806 s; to `Cn1cnc(S(=O)(=O)N2CCC(c3noc(-c4ccncc4)n3)C2)c1` (stereo not given), 628 s. Then `CC(C)c1noc(-c2ccn3c(CC(=O)N4CCc5ccccc5C4)nnc3c2)n1`, with 822 s. As to `CC(C)NC(=O)c1ccc(OCC2CCCN2C(=O)c2cccs2)cc1` (stereo not given), the RP-LC retention time was 818 s. Take `O=c1cccc2n1CC1CC2CN(Cc2nnc(-c3cccc(Br)c3)o2)C1` (stereo not given): the RP-LC retention time was 803 s. Consider `CCCN1C(=O)c2[nH]nc(-c3cccc(OC)c3)c2C1c1cccnc1` (stereo not given), for which the RP-LC retention time turned out to be 669 s. To `COc1ccc(C(=O)Nc2nccnc2C(=O)NC2CCCCC2)cc1` belongs 1040 s; to `CCOc1ccccc1NC(=O)C1CCN(S(C)(=O)=O)c2cc(Cl)ccc2O1` (stereo not given), 910 s. As for `COc1cc(NC(C)=O)c(Cl)cc1C(=O)NCCc1c[nH]c2ccc(C)cc12`, the RP-LC retention time is 831 s. With `CCc1nnc(-c2cc(C)n(CC(=O)Nc3ccc(Cl)cc3F)c2C)o1`, the RP-LC retention time worked out at 866 s. As to `CN(C)c1nc2ncn3c(=O)n(CC(=O)NC4CCCC4)nc3c2s1`, the RP-LC retention time was determined as 647 s.

Compound `CC(=O)NCCc1csc(C2CCN(C(=O)C3CCCC3)CC2)n1` registered an RP-LC retention time of 676 s. Consider `CCCNC(=O)C1CCCN(c2ccc(SCC(=O)Nc3cccc(C(=O)OCC)c3)nn2)C1` (stereo not given), for which the RP-LC retention time amounted to 741 s. As for `CCc1ccc(S(=O)(=O)c2cnc(N3CCN(c4ccccc4F)CC3)nc2N)cc1`, the RP-LC retention time is 1200 s.

`CC1=C(c2ccc(F)cc2)S(=O)(=O)N=C1N1CCCN(C(=O)c2ccc(F)cc2)CC1` registered an RP-LC retention time of 835 s.

The record behind these values is the METLIN SMRT retention time set (Domingo-Almenara et al. 2019).
